This note sets out measurements from patent US7884116B2, “Octahydronaphthalene derivative and medicine” (Nippon Shinyaku Co., Ltd., priority 2003, dated 2011).

What is called pIC50 is the negative decadic logarithm of the IC50, by convention in mol/L.

For test [1], the system named is ICAM-1 expressed on HUVEC. Description: Test about suppression of ICAM-1 expression (enzyme immuno assay, EIA), TNF-α-stimulated HUVEC. The class given is cell-based. The following applies: Homo sapiens, TNF-α 0.3 ng/ml. How it is done:
Using a culture broth containing serum for vascular endothelial cell (manufactured by Nissui Pharmaceutical Co., Ltd.) as a culture medium, HUVEC (umbilical vein endothelial cell manufactured by Morinaga Bioscience Institute) was cultured in a collagen-treated flask by the routine method.
For carrying out a test about the suppression of ICAM-1 expression with HUVEC, a collagen-treated 96-well plate was used, where HUVEC was added at 1 to 2×10^4 cells/well while the culture medium was added at 100 to 200 μl/well. The cell was cultured in 5% CO2 at 37° C. for 48 to 72 hours. Before adding a test solution, the culture medium (80 μl) was exchanged, to which 10 μl of a test solution preliminarily diluted was then added. The plate was allowed to stand alone in a CO2 incubator. 2 hours later, 10 μl of TNF-α (recombinant human TNF-α, manufactured by Genzyme) was added (to a final concentration of 0.3 ng/ml). The resulting plate was again allowed to stand alone in the CO2 incubator. 16 to 22 hours later, the cell was fixed with 1% p-formaldehyde solution. The cell was rinsed with a phosphate buffer containing Ca^2+ and Mg^2+, which was then treated with an anti-human ICAM-1 antibody (mouse IgG1, manufactured by Kyowa Medics) at ambient temperature for 30 minutes. After the cell was rinsed again with the phosphate buffer, the cell was treated with a peroxide-labeled anti-mouse IgG (H+L) (manufactured by Organon Teknik Corp.) for another 30 minutes. After the cell was again rinsed with the phosphate buffer, the color developed was measured, using a peroxidase chromogenic kit (manufactured by Sumitomo Bakelite Co., Ltd.), to determine ICAM-1 expressed on HUVEC as an expression-inhibiting ratio (%) to a non-drug group to calculate the IC50 value.

Test [2] has as its system footpad thickness, MeHSA-sensitized C57BL/6 mouse. Description: Methylated human serum albumin-induced delayed hypersensitivity test (MeHSA-DTH). The class given is in vivo. The following applies: oral, twice, footpad thickness 24 hours after induction. How it is done:
Methylated human serum albumin (MeHSA) was dissolved in physiological saline to 5 mg/ml, which was then mixed with an equal volume of the complete Freund's adjuvant (manufactured by Iatron), to prepare an emulsion. Next, 100 μl of the prepared emulsion was injected subcutaneously into a 8-week-old male C57BL/6 mouse, for antigen sensitization. Seven days thereafter, MeHSA was dissolved in physiological saline to 1 mg/ml, which was injected at 25 μl subcutaneously into the footpad of the right hind limb, to trigger a reaction. The thickness of the footpad was measured 24 hours after the induction of the reaction, to calculate the difference from the thickness thereof before the induction of the reaction, to make an assessment. Additionally, drugs were orally given twice, namely one hour before the induction of the reaction and 16 hours after the induction thereof.

In test [3] the test system is collagen-induced arthritis, DBA/1J mouse. Description: Test using collagen arthritis model in mouse. The settings on record: 30 mg/kg, oral daily after secondary sensitization, two weeks after secondary sensitization, non-drug group 5.7. In kind it is in vivo. Here is the method:
Type II collagen derived from bovine joint was dissolved in 0.1 M acetate saline to 2 mg/ml, with which an equal volume of the complete Freund's adjuvant (manufactured by Iatron) was mixed, to prepare an emulsion. For primary sensitization, the emulsion was injected intracutaneously into the tail root of a 8-week-old male DBA/1J mouse. Twenty-one days thereafter, 0.1 ml of an emulsion prepared in the same manner was intracutaneously injected into the dorsal part of the mouse, for secondary sensitization, to trigger the onset of arthritis. Two weeks after the secondary sensitization, the symptoms of arthritis were visually observed (0: normal; 1: swelling and reddening of finger tips; 2: mild swelling and reddening of parts distal from joints of hands and foots; 3: severe swelling and reddening of parts distal from joints of hands and foots). The symptoms of arthritis were observed individually over the four limbs. The total was defined as the arthritis score of an individual. Further, a test drugs was suspended in 0.5% methyl cellulose and orally given daily after the secondary sensitization.

For test [4], the system named is A549 (human lung cancer cell). Description: Test about the suppression of cell growth (MTT). In kind it is cell-based. The settings on record: 72 h, A549, 3 days. How it is done:
(§1) Various cancer cells and normal cell as cultured in a culture broth to 70 to 90% confluency were used. After the culture broth was removed, 0.25% trypsin/1 mM-EDTA solution was added to scrape off the cells and count the cells. Then, a cell suspension of 5×10^4 cells/ml was prepared. The suspension was divided at 90 μl/well into a 96-well plate, and allowed to stand alone in a CO2 incubator. On the next day, (a 0 to 10 μM test drug (the compound of Example 5) was added at 10 μl/well, for gentle shaking for sufficiently mixing the test drug with the liquid culture. After culturing for 3 days, each 10-μl portion of aqueous 5 mg/ml MTT (3-(4,5-dimethylthiazol-2-yl)-2,5-diphenyltetrazolium bromide) solution was added. After culturing in the CO2 incubator for another 4 hours, 100 μl of a 2-propanol solution containing 0.04N hydrochloric acid was added to each well, for terminating the reaction. The generated MTT formazan was sufficiently dissolved with a multi-channel pipette, to measure the absorbance at 595 nm, using a control wavelength of 655 nm. The measured absorbance was analyzed by non-linear regression analysis using a model formula by the MTT method, to calculate the concentration at which the cell growth was inhibited by 50% (IC50). The cells used at this test and the culture broths therefor are as shown below. • 1) Cell: A549 (human lung cancer cell, Human Science Foundation) • Culture broth: DMEM (Dulbecco's modified Eagle medium)+10% FBS (fetal bovine serum) • 2) Cell: PC-3 (human prostate cancer cell, ATCC) • Culture broth: DMEM+10% FBS • 3) Cell: AsPC-1 (human pancreas cancer cell, Tokyo University) • Culture broth: DMEM+10% FBS • 4) Cell: HT-1080 (human fibrosarcoma cell, ATCC) • Culture broth: DMEM+10% FBS • 5) Cell: Hepatocyte (normal human liver cell, ACRBI) • Culture broth: CS-C (Cell Systems) • 6) Cell: NHDF (normal human fibroblast cell, Kurabo) • Culture broth: DMEM+10% FBS • 7) Cell: BAE (normal bovine aorta vascular endothelial cell, ACRBI) • Culture broth: CS-C (Cell systems)

Test [5] deals with AsPC-1 (human pancreas cancer cell). Description: Test about the suppression of cell growth (MTT). The class given is cell-based. The following applies: ASPC1, 72 h, AsPC-1, 3 days. How it is done:
as §1

Test [6] concerns BAE (normal bovine aorta vascular endothelial cell). Description: Test about the suppression of cell growth (MTT). In kind it is cell-based. The following applies: Bos taurus, 72 h, 3 days. How it is done:
as §1

Test [7] concerns HT-1080 (human fibrosarcoma cell). Description: Test about the suppression of cell growth (MTT). In kind it is cell-based. The settings on record: 72 h, HT-1080, 3 days. Here is the method: as §1
For test [8], the system named is Hepatocyte (normal human liver cell). Description: Test about the suppression of cell growth (MTT). The settings on record: 72 h, 3 days. The class given is cell-based. How it is done:
as §1

The test system of test [9] is NHDF (normal human fibroblast cell). Description: Test about the suppression of cell growth (MTT). The class given is cell-based. The following applies: 72 h, 3 days. Here is the method:
as §1

For test [10], the system named is PC-3 (human prostate cancer cell). Description: Test about the suppression of cell growth (MTT). The class given is cell-based. The settings on record: 72 h, PC-3, 3 days. Here is the method: as §1

pIC50: −log10 of the molar value. Marks after values point to notes of the source that are not given here.

For the compound `C/C(=C\C=C\[C@@H]1[C@H]2[C@H](C)[C@@H](O)[C@H](C)C[C@@H]2C=C[C@@H]1C)C(=O)NCc1cccnc1` [Example 5, N-(Pyridin-3-ylmethyl)-(2E,4E)-5-[(1S,2S,4aR,6R,7S,8S,8aS)-7-hydroxy-2,6,8-trimethyl-1,2,4a,5,6,7,8,8a-octahydronaphthalen-1-yl]-2-methylpenta-2,4-dienamide], the pIC50 in test [1] is 6.77; in [4] it was 7.07; in [5], 6.95; in test [6], 5.03; in test [7] it was 7.15; in test [8], 6.37. Moreover, the pIC50 in [9] is 6.22; in test [10], 7.17. Also, the “Suppression ratio (%)” value is given as 27.5* % in [2] (10 mg/kg) and 51.5** % in test [2] (30 mg/kg). Further, the Arthritis score in test [3] is 2.1*.
